{
  "source": "paper PMC10609114",
  "about": "“Melittin-Related Peptides Interfere with Sandfly Fever Naples Virus Infection by Interacting with Heparan Sulphate” (Microorganisms, 2023)",
  "key": {"[1]": {"test_system": "SFNV", "experiment": "Heparin assay: neutralization of SFNV infection by heparin", "assay_type": "cell-based, sandfly fever Naples virus", "conditions": "Vero cells, heparin 266.7 to 0.26 μM with SFNV (200 TCID50/mL) 1 h at 37 °C, CPE after 5 days", "experimental": "To analyze if heparin could neutralize the virus binding to cells, Vero were infected with SFNV (200 TCID50/mL) and simultaneously treated with serial heparin dilutions (1.56, […], 25, 100, 400, and 1600 μg/mL) for 1 h at 37 °C. Then, the cell monolayer was washed with medium and incubated in the presence of DMEM 5% FBS for 5 days until the CPE appeared. To analyze the simultaneous effect of heparin and each peptide against SFNV infection, a standard concentration of RV-23 or AR-23 (10 μM) was incubated together with the same above-mentioned heparin concentrations. At the same time, the virus (200 TCID50/mL) was added to cell monolayer and subsequently incubated for 1 h at 37 °C. The infection was observed after 5 days infection via CPE.\nPhleboviruses use GAGs for the viral entry, including heparin and heparan sulphate (HS). […] Different concentrations of heparin were incubated with the virus during the adsorption phase, and after 5 days of infection, the CPE was analyzed (Figure 3A).\nFigure 3 Heparin assay. […] Serial heparin concentrations were incubated with the virus and each peptide […] on Vero cells, and after 5 days of infection, CPE was analyzed by crystal violet staining. […]"}, "[2]": {"test_system": "SFNV", "experiment": "Antiviral co-treatment assay (CPE, crystal violet)", "assay_type": "cell-based, sandfly fever Naples virus", "conditions": "Vero cells, peptide and SFNV (200 TCID50/mL) added together 1 h at 37 °C, CPE after 5 days; read-out: inhibitory concentration of 50% (IC50), co-treatment", "experimental": "(§1) To analyze whether peptides were endowed with antiviral activity against SFNV, and, specifically, what stage of the infection was affected, different experimental procedures were carried out: (i) co-treatment assay: the cells (5 × 10^5/mL) were incubated with each peptide (at non-cytotoxic concentrations) and infected with the virus (200 TCID50/mL) at the same time (1 h at 37 °C); (ii) virus pre-treatment assay: […] and the mixture was subsequently titrated on cells; (iii) cell pre-treatment assay: cells were previously incubated with the peptide and then infected (1 h at 37 °C); (iv) post-treatment assay: peptide was incubated with the cells after the viral adsorption step (1 h at 37 °C). Following the incubation, the cell monolayer was rinsed three times with medium and than supplemented with DMEM 5% FBS. After 5 days post-infection, cythopathic effect (CPE) was observed and cells were stained with 0.5% crystal violet. All experiments were performed in triplicate. The inhibition rate of the infectivity was evaluated by CPE observed in the wells treated with the peptides to CPE in positive control (cells infected with virus, without peptide).\n(§2) The difference between the assays was the timing of incubation of peptides on the cell monolayer. […]"}, "[3]": {"test_system": "SFNV", "experiment": "Antiviral virus pre-treatment assay (CPE, crystal violet)", "assay_type": "cell-based, sandfly fever Naples virus", "conditions": "peptide incubated with SFNV 1 h at 37 °C, mixture titrated on Vero cells, CPE after 5 days; read-out: inhibitory concentration of 50% (IC50), virus pre-treatment", "experimental": "as §1, §2"}, "[4]": {"test_system": "Vero cells", "experiment": "Cytotoxicity assay (MTT)", "assay_type": "cell-based", "conditions": "24 h at 37 °C, peptide 50 to 3.125 μM, triplicate", "experimental": "Confluent Vero cells were treated with twofold serial dilutions of each peptide (50, 25, 12.5, 6.25, 3.125 μM). The 96-well plates were incubated at 37 °C/5% CO2 for 24 h; then, cell viability was analyzed by the 3-(4,5-Dimethylthiazol-2-yl)-2,5-Diphenyltetrazolium Bromide (MTT, Sigma-Aldrich, St. Louis, MO, USA) assay based on the reduction of the yellowish MTT to dark blue formazan salts. In brief, at the end of incubation, 100 μL of MTT solution (5 mg/mL) was incubated in each well for 3 h at 37 °C. Supernatant was removed and 100 μL of DMSO 100% (Sigma Aldrich) was added to dissolve formazan. Cytotoxicity was evaluated by spectrophotometric reading at 540 nm. Cell viability was calculated as a percentage of control cells. All experiments were performed in triplicate and means and standard deviations were reported. Nonlinear regression analysis was performed using GraphPad Prism software (version 8.0.1) to extract the CC50.\nA preliminary experiment was carried out to evaluate the maximal non-cytotoxic concentration of RV-23 and AR-23. Twofold serial dilutions of each peptide were incubated with Vero cells for 24 h at 37 °C.\nFigure 1 Cytotoxicity analysis after RV-23 and AR-23 treatment. Vero cells were treated with each peptide in the range of concentrations from 50 to 3.125 μM. After 24 h, MTT assay was carried out. Cell viability was calculated as a percentage of control cells. […]"}},
  "note": "pIC50: −log10 of the molar value. Peptide text beside a SMILES is read from it.",
  "data": [
    {"compound": "heparin", "values": [
      {"measurement": "Inhibition of SFNV infection by heparin", "setting": "[1]", "result": "strongly blocked the viral infection up to 4.2 μM"}
    ]},
    {"compound": "CC[C@H](C)[C@H](NC(=O)[C@@H](N)CCCNC(=N)N)C(=O)NCC(=O)N[C@H](C(=O)N[C@@H](CC(C)C)C(=O)N[C@@H](CC(C)C)C(=O)N[C@@H](C)C(=O)N[C@@H](CCCNC(=N)N)C(=O)N[C@@H](CC(C)C)C(=O)N1CCC[C@H]1C(=O)N[C@@H](CCCCN)C(=O)N[C@@H](CC(C)C)C(=O)N[C@@H](Cc1ccccc1)C(=O)N[C@@H](CO)C(=O)N[C@@H](CC(C)C)C(=O)N[C@@H](Cc1ccccc1)C(=O)N[C@@H](CCCCN)C(=O)N[C@@H](CC(C)C)C(=O)N[C@@H](CCSC)C(=O)NCC(=O)N[C@@H](CCCCN)C(=O)N[C@@H](CCCCN)C(=O)N[C@H](C(N)=O)C(C)C)C(C)C", "note": "[RV-23] (H-RIGVLLARLPKLFSLFKLMGKKV-NH2)", "values": [
      {"measurement": "pIC50", "setting": "[2]", "result": 5.00},
      {"measurement": "pIC50", "setting": "[3]", "result": 5.20},
      {"measurement": "Cytotoxicity (cell viability) in words", "setting": "[4]", "result": "not cytotoxic up to the highest dose"}
    ]},
    {"compound": "CC[C@H](C)[C@H](NC(=O)[C@H](C)N)C(=O)NCC(=O)N[C@@H](CO)C(=O)N[C@H](C(=O)N[C@@H](CC(C)C)C(=O)NCC(=O)N[C@@H](C)C(=O)N[C@@H](CC(C)C)C(=O)N[C@@H](C)C(=O)N[C@@H](CCCCN)C(=O)NCC(=O)N[C@@H](CC(C)C)C(=O)N1CCC[C@H]1C(=O)N[C@H](C(=O)N[C@@H](CC(C)C)C(=O)N[C@H](C(=O)N[C@@H](CO)C(=O)N[C@@H](Cc1c[nH]c2ccccc12)C(=O)N[C@H](C(=O)N[C@@H](CCCCN)C(=O)N[C@@H](CC(N)=O)C(=O)N[C@@H](CCCNC(=N)N)C(N)=O)[C@@H](C)CC)[C@@H](C)CC)[C@@H](C)O)[C@@H](C)CC", "note": "[AR-23] (H-AIGSILGALAKGLPTLISWIKNR-NH2)", "values": [
      {"measurement": "pIC50", "setting": "[2]", "result": 4.90},
      {"measurement": "pIC50", "setting": "[3]", "result": 5.00},
      {"measurement": "Cytotoxicity (cell viability) in words", "setting": "[4]", "result": "consistently affected cell viability at 50 μM"}
    ]}
  ]
}
